pKi: −log10 of the molar value.
Tests used:
amyloid plaques = target: T1, amyloid plaques (Homo sapiens, UniProt P05067); experiment: Ki values of Phen-Nap, Nap-Phen derivatives (Ki binding data)
T1 construct: fibrillary Aβ plaques consisting predominately of aggregates of Aβ40 and Aβ42 peptides

[1] = Log P (octanol/Na2HPO4 buffer pH 7.4); type: physicochemical
[2] = Biodistribution in ICR mice after an iv injection; type: in vivo
In short: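 Mice received an iv injection of the [^18F] tracer in 1%, 3% or 5% EtOH/0.1% BSA in water, depending on tracer. Organ radioactivity is given as % dose/organ and % dose/g, mean of 3 mice ±SD.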

[3] = Blood, 2 min after iv injection
[4] = Blood, 30 min after iv injection
[5] = Bone, 30 min after iv injection
[6] = Brain, 2 min after iv injection
[7] = Brain, 30 min after iv injection
[8] = Heart, 2 min after iv injection
[9] = Heart, 30 min after iv injection
[10] = Kidney, 2 min after iv injection
[11] = Kidney, 30 min after iv injection
[12] = Kidney, 1 hr after iv injection
[13] = Kidney, 2 hr after iv injection
[14] = Liver, 2 min after iv injection
[15] = Liver, 30 min after iv injection
[16] = Lung, 30 min after iv injection
[17] = Muscle, 2 min after iv injection
[18] = Muscle, 30 min after iv injection
[19] = Muscle, 1 hr after iv injection
[20] = Muscle, 2 hr after iv injection
[21] = Skin, 30 min after iv injection
[22] = Spleen, 2 min after iv injection
[23] = Spleen, 30 min after iv injection
[24] = Spleen, 1 hr after iv injection
[25] = Spleen, 2 hr after iv injection

T1 sequence (P05067 672-713 limits assumed): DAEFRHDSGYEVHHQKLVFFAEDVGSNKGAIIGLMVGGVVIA
T1 sequence (P05067 672-711 limits assumed): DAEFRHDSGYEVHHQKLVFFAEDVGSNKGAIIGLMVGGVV

`CNc1ccc(-c2ccc3cc(OCCOCCOCCF)ccc3c2)cc1` [Compound 13a, 4-(6-(2-(2-(2-fluoroethoxy)ethoxy)ethoxy)naphthalen-2-yl)-N-methylbenzenamine] gave a pKi (amyloid plaques) of 8.80 and a logP ([1]; pH 7.4) of 3.22.

For `CNc1ccc(-c2ccc3nc(OCCOCCOCC[18F])ccc3c2)cc1` [[^18F]34a], the “% dose/g” value [2, 3] was 2.50 ± 0.14 % dose/g, the “% dose/organ” value [2, 3] was 4.29 ± 0.20 % dose/organ and the “% dose/g” value [2, 4] was 1.49 ± 0.15 % dose/g. For the same compound, the “% dose/organ” value [2, 4] was 2.51 ± 0.18 % dose/organ, the “% dose/g” value ([2]; Blood, 1 hr after iv injection) was 1.61 ± 0.12 % dose/g and the “% dose/organ” value ([2]; Blood, 1 hr after iv injection) was 2.87 ± 0.20 % dose/organ. For the same compound, the “% dose/g” value ([2]; Blood, 2 hr after iv injection) was 1.52 ± 0.23 % dose/g, the “% dose/organ” value ([2]; Blood, 2 hr after iv injection) was 2.58 ± 0.26 % dose/organ and the “% dose/g” value ([2]; Bone, 2 min after iv injection) was 1.11 ± 0.11 % dose/g. The “% dose/organ” value ([2]; Bone, 2 min after iv injection) was 3.82 ± 0.33 % dose/organ, the “% dose/g” value [2, 5] was 1.16 ± 0.20 % dose/g and the “% dose/organ” value [2, 5] was 3.87 ± 0.43 % dose/organ. The “% dose/g” value ([2]; Bone, 1 hr after iv injection) was 1.49 ± 0.18 % dose/g, the “% dose/organ” value ([2]; Bone, 1 hr after iv injection) was 5.31 ± 0.31 % dose/organ and the “% dose/g” value ([2]; Bone, 2 hr after iv injection) was 2.33 ± 0.43 % dose/g. For the same compound, the “% dose/organ” value ([2]; Bone, 2 hr after iv injection) was 7.84 ± 0.91 % dose/organ, the “% dose/g” value [2, 6] was 10.2 ± 1.09 % dose/g and the “% dose/organ” value [2, 6] was 4.61 ± 0.60 % dose/organ. For the same compound, the “% dose/g” value [2, 7] was 2.23 ± 0.29 % dose/g, the “% dose/organ” value [2, 7] was 1.02 ± 0.11 % dose/organ and the “% dose/g” value ([2]; Brain, 1 hr after iv injection) was 1.88 ± 0.20 % dose/g. The “% dose/organ” value ([2]; Brain, 1 hr after iv injection) was 0.90 ± 0.08 % dose/organ, the “% dose/g” value ([2]; Brain, 2 hr after iv injection) was 1.90 ± 0.25 % dose/g and the “% dose/organ” value ([2]; Brain, 2 hr after iv injection) was 0.85 ± 0.12 % dose/organ. For the same compound, the “% dose/g” value [2, 8] was 10.7 ± 2.06 % dose/g, the “% dose/organ” value [2, 8] was 1.26 ± 0.20 % dose/organ and the “% dose/g” value [2, 9] was 2.86 ± 0.30 % dose/g. For the same compound, the “% dose/organ” value [2, 9] was 0.36 ± 0.05 % dose/organ, the “% dose/g” value ([2]; Heart, 1 hr after iv injection) was 2.20 ± 0.31 % dose/g and the “% dose/organ” value ([2]; Heart, 1 hr after iv injection) was 0.29 ± 0.03 % dose/organ. For the same compound, the “% dose/g” value ([2]; Heart, 2 hr after iv injection) was 1.71 ± 0.13 % dose/g, the “% dose/organ” value ([2]; Heart, 2 hr after iv injection) was 0.19 ± 0.01 % dose/organ and the “% dose/g” value [2, 10] was 13.6 ± 0.10 % dose/g. For the same compound, the “% dose/organ” value [2, 10] was 5.22 ± 0.33 % dose/organ, the “% dose/g” value [2, 11] was 4.41 ± 0.49 % dose/g and the “% dose/organ” value [2, 11] was 1.69 ± 0.22 % dose/organ. For the same compound, the “% dose/g” value [2, 12] was 3.57 ± 0.64 % dose/g, the “% dose/organ” value [2, 12] was 1.36 ± 0.09 % dose/organ and the “% dose/g” value [2, 13] was 2.47 ± 0.45 % dose/g. The “% dose/organ” value [2, 13] was 1.00 ± 0.24 % dose/organ, the “% dose/g” value [2, 14] was 18.2 ± 0.95 % dose/g and the “% dose/organ” value [2, 14] was 21.2 ± 0.76 % dose/organ. For the same compound, the “% dose/g” value [2, 15] was 11.9 ± 1.63 % dose/g, the “% dose/organ” value [2, 15] was 14.2 ± 0.91 % dose/organ and the “% dose/g” value ([2]; Liver, 1 hr after iv injection) was 8.99 ± 1.19 % dose/g. For the same compound, the “% dose/organ” value ([2]; Liver, 1 hr after iv injection) was 11.8 ± 0.65 % dose/organ, the “% dose/g” value ([2]; Liver, 2 hr after iv injection) was 6.72 ± 0.58 % dose/g and the “% dose/organ” value ([2]; Liver, 2 hr after iv injection) was 8.29 ± 1.09 % dose/organ. The “% dose/g” value ([2]; Lung, 2 min after iv injection) was 6.83 ± 0.07 % dose/g, the “% dose/organ” value ([2]; Lung, 2 min after iv injection) was 1.34 ± 0.03 % dose/organ and the “% dose/g” value [2, 16] was 2.87 ± 0.32 % dose/g. For the same compound, the “% dose/organ” value [2, 16] was 0.54 ± 0.06 % dose/organ, the “% dose/g” value ([2]; Lung, 1 hr after iv injection) was 2.42 ± 0.34 % dose/g and the “% dose/organ” value ([2]; Lung, 1 hr after iv injection) was 0.48 ± 0.06 % dose/organ. For the same compound, the “% dose/g” value ([2]; Lung, 2 hr after iv injection) was 1.96 ± 0.29 % dose/g, the “% dose/organ” value ([2]; Lung, 2 hr after iv injection) was 0.36 ± 0.05 % dose/organ and the “% dose/g” value [2, 17] was 0.65 ± 0.01 % dose/g. For the same compound, the “% dose/organ” value [2, 17] was 6.40 ± 0.14 % dose/organ, the “% dose/g” value [2, 18] was 1.50 ± 0.21 % dose/g and the “% dose/organ” value [2, 18] was 14.5 ± 2.59 % dose/organ. For the same compound, the “% dose/g” value [2, 19] was 1.33 ± 0.17 % dose/g, the “% dose/organ” value [2, 19] was 13.5 ± 0.83 % dose/organ and the “% dose/g” value [2, 20] was 0.98 ± 0.08 % dose/g. For the same compound, the “% dose/organ” value [2, 20] was 9.55 ± 0.31 % dose/organ, the “% dose/g” value ([2]; Skin, 2 min after iv injection) was 0.58 ± 0.07 % dose/g and the “% dose/organ” value ([2]; Skin, 2 min after iv injection) was 2.13 ± 0.27 % dose/organ. The “% dose/g” value [2, 21] was 1.03 ± 0.12 % dose/g, the “% dose/organ” value [2, 21] was 3.70 ± 0.28 % dose/organ and the “% dose/g” value ([2]; Skin, 1 hr after iv injection) was 1.47 ± 0.12 % dose/g. The “% dose/organ” value ([2]; Skin, 1 hr after iv injection) was 5.67 ± 0.85 % dose/organ, the “% dose/g” value ([2]; Skin, 2 hr after iv injection) was 1.12 ± 0.05 % dose/g and the “% dose/organ” value ([2]; Skin, 2 hr after iv injection) was 4.12 ± 0.12 % dose/organ. The “% dose/g” value [2, 22] was 4.11 ± 1.02 % dose/g, the “% dose/organ” value [2, 22] was 0.47 ± 0.08 % dose/organ and the “% dose/g” value [2, 23] was 2.16 ± 0.05 % dose/g. For the same compound, the “% dose/organ” value [2, 23] was 0.21 ± 0.00 % dose/organ, the “% dose/g” value [2, 24] was 1.89 ± 0.27 % dose/g and the “% dose/organ” value [2, 24] was 0.17 ± 0.01 % dose/organ. For the same compound, the “% dose/g” value [2, 25] was 1.48 ± 0.20 % dose/g, the “% dose/organ” value [2, 25] was 0.14 ± 0.02 % dose/organ and the “Log P” value ([1]; octanol/0.05 M Na2HPO4 buffer (pH 7.4)) was 3.23.

— US20100215579A1, “PHEN-NAPHTHALENE AND PHEN-QUINOLINE DERIVATIVES AND THEIR USE FOR BINDING AND IMAGING AMYLOID PLAQUES” (The Trustees of the University of Pennsylvania, priority 2007, published 2010)
